How the values were obtained:
[1] = system: human prostate cancer cells, DU-145; test: In vitro Taxol add-on study (MTT), prostate cancer cells DU-145; assay type: cell-based; conditions: Homo sapiens; DU-145 (0.0043 μg/ml Taxol + formula 2) as printed in Table 6
Protocol: (§1) The experiment was also carried out according to NCI anti-cancer drug screen in vitro model. The human prostate cancer cells, LNCaP and DU-145 were separately cultivated in media containing fetal calf serum for 24 hours. The proliferated cells were washed once with PBS, then treated with 1× trypsin-EDTA and centrifuged at 1200 rpm for 5 minutes. The supernatant was discarded and the cell pellet was resuspended in 10 ml of fresh culture medium by gently shaking. The LNCaP cells were treated with 0.0017 μg/ml of Taxol for 72 hours and DU-145 cells were treated with 0.0043 μg/ml of Taxol for 72 hours before placing in a 96-well plate. 4-hydroxy-2,3-dimethoxy-6-methyl-5(3,7,11-trimethyl-dodeca-2,6,10-trienyl)-cyclohex-2-enone obtained from example 1 were added respectively into each of the 96 wells at the following concentrations: 0 μg/ml (the control group); 30, 10, 3, 1, 0.3, 0.1 and 0.03 μg/ml (the experiment group). The cells were incubated at 37° C. in a 5% CO2 incubator for 48 hours. MTT was added in a concentration of 2.5 mg/ml into each well in dark and reacted for 4 hours, followed by the addition of 100 μl of lysis buffer to stop the reaction. The plates were read on an ELISA reader at wavelength of 570 nm to determine the survival rates.

[2] = system: human breast-cancer cells, MDA-MB-231; test: In vitro survival assay (MTT), breast cancer cells MDA-MB-231; assay type: cell-based; conditions: 48 hours incubation
Protocol: The NCI anti-cancer drug screen model was adopted to test the anti-cancer effect of the compound from example 1 in the invention. The isolated compound of 4-hydroxy-2,3-dimethoxy-6-methyl-5(3,7,11-trimethyl-dodeca-2,6,10-trienyl)-cyclohex-2-enone from example 1 was added into the culture media of human breast-cancer cells, MCF-7 or MDA-MB-231, for tumor cell survival assay. This assay can be tested with 3-[4,5-dimethylthiazol-2-yl]2,5-diphenyltetrazolium bromide (MTT) assay, which is commonly used to determine cell proliferation, percent of viable cells, and cytotoxicity. MTT is a yellow dye, which can be absorbed by the living cells and be reduced to purplish blue formazan crystals by succinate tetrazolium reductase in mitochondria. Formazan formation can therefore be used to assess and determine the survival rate of cells.
The human breast-cancer cells, MCF-7 and MDA-MB-231 were separately cultivated in media containing fetal calf serum for 24 hours. The proliferated cells were washed once with PBS, then treated with 1× trypsin-EDTA and centrifuged at 1200 rpm for 5 minutes. The supernatant was discarded and the cell pellet was resuspended in 10 ml of fresh culture medium by gently shaking. The cells were placed in a 96-well plate. […] The plates were read on an ELISA reader at wavelength of 570 nm to determine the survival rates.

[3] = system: human hepatic cancer cells, Hep 3B; test: In vitro Lovastatin add-on study (MTT), Hep 3B; assay type: cell-based; conditions: Homo sapiens, Hep3B, 0.0043 μg/ml Lovastatin + formula 2
Protocol: as §1, with “human hepatic” for “human prostate”, “cells, Hep 3B” for “cells, LNCaP”, “and Hep G2 […]” for “and DU-145”, “The Hep 3B cells were treated with 0.0043 μg/ml of Lovastatin for 72 hours and Hep G2” for “The LNCaP”, “0.0017” for “0.0017 μg/ml of Taxol for 72 hours and DU-145 cells were treated with 0.0043”

[4] = system: Human low density lipoprotein (LDL); test: In vitro antioxidant activity study (Cu2+-induced LDL oxidation, diene formation); assay type: biochemical; conditions: 40 μg/mL formula 2; for Capacity values: capacity value 1 = 2 μM Trolox, antioxidant ability when larger than 0.5
Protocol: Human low density lipoprotein (LDL) oxidated with copper ion (Cu^2+) has been widely employed to assess antioxidant activities of samples to be assayed. Antioxidant activity of a sample is determined by the diene contents of LDL after oxidation and expressed in Trolox equivalents by using a standard curve calculated from the water-soluble vitamin E analogue Trolox standards (the antioxidant capacity value of 1 is expressed in terms of 2 μM of Trolox).
The following solutions were prepared firstly: double distilled water (the negative control group), 5 mM sodium phosphate buffer (SPB), 1 μM and 2 μM Trolox solution (the positive control group), and 40 μg/ml 4-hydroxy-2,3-dimethoxy-6-methyl-5(3,7,11-trimethyl-dodeca-2,6,10-trienyl)-cyclohex-2-enone isolated from example 1. The concentration of LDL cholesterol (LDL-C) was determined using enzyme reaction method, which was diluted to 0.1-0.25 mg/ml with 5 mM SPB. One hundred μl of the LDL was added into each well of a 96-well quartz plate, followed by addition of the abovementioned Trolox and the isolated compound from example 1. Standardized oxidizing agent CuSO4 was supplemented to induce oxidation at a final concentration of 5 μM in each 250 μl well. The plate was read on an ELISA reader at wavelength of 232 nm at 37 °C for 12 hours. The sampling time was 15 min.

COC1=C(OC)C(O)C(C/C=C(\C)CC/C=C(\C)CCC=C(C)C)C(C)C1=O (stereo not shown) [formula 2, 4-hydroxy-2,3-dimethoxy-6-methyl-5(3,7,11-trimethyl-dodeca-2,6,10-trienyl)-cyclohex-2-enone]
IC50 [1]: 0.515 µg/mL
IC50 [2]: 1.03 µg/mL
IC50 [3]: 0.002 µg/mL
Tlag ([4]; LDL oxidised with 5 μM CuSO4): 439 min
Capacity values [4]: 1.30
Capacity values ([4]; listed as 4-hydroxy-2,3-dimethoxy-6-methyl-5(3,7,11-trimethyl-dodeca-2,6,10-trienyl)-cyclo): 1.3
ΔTlag ([4]; difference between Tlag and Tlag0 (H2O)): 208 min
